The results in this text go back to patent publication US20230157996A1, “SMALL-MOLECULE INHIBITOR TARGETING EB VIRUS NUCLEAR ANTIGEN PROTEIN, PREPARATION METHOD AND USE THEREOF” (priority 2020, published 2023).

Like-named read-outs stand apart in the source and are kept apart here.

For the assay, the system named is C666-1 cells. The assay can be described thus: C666-1 cell viability single concentration (50 μM) inhibition rate (Resazurin). The note with it: Homo sapiens, C6661, 72 h, read-out: C666-1 cell viability single concentration (50 μM) inhibition rate, Ratio* (Inh %). Type of assay: cell-based. Summed up: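 Resazurin fluorescence (560/590 nm, 3 h development) gave the proliferation inhibition rate, normalised to DMSO-treated and cell-free blank wells. Compound was tested at a single 50 μmol/L final concentration on C666-1 cells for 72 h at 37° C, with duplicate wells, after 24 h seeding.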
(Resazurin is reduced to fluorescent resorufin, in cell work by metabolically active cells.)

Where [1] appears, read: 50 μM compound, 72 hours, C666-1 cells.

As to `CN(C)c1ccc(OC2CN(c3cccc(C(=O)O)c3-n3cccc3)C2)cc1` [Example 98, 3-(3-(4-(dimethylamino)phenoxy)azetidin-1-yl)-2-(1H-pyrrol-1-yl)benzoic acid], under setting [1], the inhibition at 50 µM is 10 to 30%. Still for that read-out and setting: as for `COC(=O)c1cccc(N2CC3(CN(c4ccccc4)C3)C2)c1N` [Compound 9, Methyl 2-amino-3-(6-phenyl-2,6-diazaspiro[3.3]heptan-2-yl)benzoate], the figure is 10 to 30%. The same measure, in the same setting: in the case of `COC(=O)c1cccc(C#CN(Cc2ccc(CO)cc2)S(=O)(=O)c2ccc(C)cc2)c1-n1cccc1` [Example 332, Methyl 3-(((N-(4-(hydroxymethyl)benzyl)-4-methylphenyl)sulfonamido)ethynyl)-2-(1H-pyrrol-1-yl)benzoate] it was more than 50%; in that of `CS(=O)(=O)Nc1ccc(OC2CN(c3cccc(C(=O)O)c3-n3cccc3)C2)cc1` [Example 125, 3-(3-(4-(methylsulfonamido)phenoxy)azetidin-1-yl)-2-(1H-pyrrol-1-yl)benzoic acid], less than 10%; in that of `COCCOc1ccc(OC2CN(c3cccc(C(=O)OC)c3-n3cccc3)C2)cc1` [Example 224, Methyl 3-(3-(4-(2-methoxyethoxy)phenoxy)azetidin-1-yl)-2-(1H-pyrrol-1-yl)benzoate], less than 10%. Turning to `COc1cccc(OC2CN(c3cccc(C(=O)O)c3-n3cccc3)C2)c1` [Compound 80, 3-(3-(3-methoxyphenoxy)azetidin-1-yl)-2-(1H-pyrrol-1-yl)benzoic acid], the inhibition at 50 µM under setting [1] is less than 10%. Still for that read-out and setting: as for `COCCOCc1ccc(OC2CN(c3cccc(C(=O)OC)c3-n3cccc3)C2)cc1OCCOC` [Example 366, Methyl 3-(3-(3-(2-methoxyethoxy)-4-((2-methoxyethoxy)methyl)phenoxy)azetidin-1-yl)-2-(1H-pyrrol-1-yl)benzoate], the figure is 10 to 30%; as for `COC(=O)c1cccc(N2CC(Oc3ccc(COC4CCN(C(C)=O)CC4)cc3)C2)c1-n1cccc1` [Example 378], less than 10%. On the same count and under the same terms, as for `COC(=O)c1cccc(C#CN(Cc2ccccc2)S(=O)(=O)c2csc3ccccc23)c1-n1cccc1` [Example 320, Methyl 3-((N-benzylbenzo[b]thiophen-3-sulfonamido)ethynyl)-2-(1H-pyrrol-1-yl)benzoate], the figure is less than 10%; as for `CC(=O)c1ccc(OC2CN(c3cccc(C(=O)O)c3-n3cccc3)C2)cc1` [Compound 88, 3-(3-(4-acetylphenoxy)azetidin-1-yl)-2-(1H-pyrrol-1-yl)benzoic acid], less than 10%.

On to `O=C(O)c1cccc(C#CN(Cc2ccccc2F)S(=O)(=O)c2cccs2)c1-n1cccc1` [Example 325, Lithium 3-((N-(2-fluorobenzyl)thiophen-2-sulfonamido)ethynyl)-2-(1H-pyrrol-1-yl)benzoate], for which the inhibition at 50 µM was 30 to 50%.

Take `COC(=O)c1cccc(N2CC(Oc3ccc(CO)cc3)C2)c1-c1cccc(OC)c1` [Compound 66, Methyl 3′-methoxy-6-(3-(4-(hydroxymethyl)phenoxy)azetidin-1-yl)-[1,1′-biphenyl]-2-formate]: under setting [1], the inhibition at 50 µM fell in the range of 30 to 50%. As for `COC(=O)c1cccc(N2CC(Oc3ccccc3N)C2)c1-n1cccc1` [Example 255, Methyl 3-(3-(2-aminophenoxy)azetidin-1-yl)-2-(1H-pyrrol-1-yl)benzoate], the inhibition at 50 µM under setting [1] is more than 50%.

Regarding `COc1ccc(C(OC(C)=O)C23CC(c4cccc(C(=O)O)c4)(C2)C3)cc1` (centres unmarked) [Compound 1, 3-(3-(acetoxyl(4-methoxyphenyl)methyl)bicyclo[1. 1.1]pentan-1-yl)benzoic acid], the inhibition at 50 µM under setting [1] was less than 10%.

As for `N#Cc1ccc(OC2CN(c3cccc(C(=O)O)c3-n3cccc3)C2)cc1` [Compound 94, 3-(3-(4-cyanophenoxy)azetidin-1-yl)-2-(1H-pyrrol-1-yl)benzoic acid], the inhibition at 50 µM under setting [1] was less than 10%.

On to `CS(=O)(=O)Nc1cccc(-c2c(C(=O)O)cccc2N2CC(Oc3ccc(CO)cc3)C2)c1` [Example 280], for which the inhibition at 50 µM under setting [1] is less than 10%. Turning to `O=C(NC1CCCCC1)OC1CN(c2cccc(C(=O)O)c2-n2cccc2)C1` [Example 150, 3-(3-((cyclohexylcarbamoyl)oxy)azetidin-1-yl)-2-(1H-pyrrol-1-yl)benzoic acid], the inhibition at 50 µM under setting [1] is less than 10%.

Take `CCNC(=S)OCc1ccc(OC2CN(c3cccc(C(=O)O)c3-n3cccc3)C2)cc1` [Example 239]: under setting [1], the inhibition at 50 µM was less than 10%. On the same count and under the same terms, as for `COC(=O)c1cccc(C23CC(c4ccc(OC)cc4)(C2)C3)c1-n1cccc1` [Compound 7, Methyl 3-(3-(4-methoxyphenyl)bicyclo[1.1.1]pentan-1-yl)-2-(1H-pyrrol-1-yl)benzoate], the figure is less than 10%; as for `O=C(NC1CC1)NC1CN(c2cccc(C(=O)O)c2-n2cccc2)C1` [Example 169, 3-(3-(3-cyclopropylureido)azetidin-1-yl)-2-(1H-pyrrol-1-yl)benzoic acid], less than 10%; as for `COC(=O)c1cccc(N2CC(Sc3ccc(Cl)cc3)C2)c1-n1cccc1` [Example 349, Methyl 3-(3-((4-chlorophenyl)thio)azetidin-1-yl)-2-(1H-pyrrol-1-yl)benzoate], less than 10%. `COC(=O)c1cccc(N2CC(NS(=O)(=O)c3ccc(C)cc3)C2)c1-n1cccc1` [Example 176, Methyl 3-(3-((4-methylphenyl)sulfonamido)azetidin-1-yl)-2-(1H-pyrrol-1-yl)benzoate]: the inhibition at 50 µM under setting [1] fell in the range of 10 to 30%. As to `Cc1ccc(S(=O)(=O)N(C#Cc2cccc(C(=O)O)c2-n2cccc2)CC2CCN(C)CC2)cc1` [Example 319, Lithium 3-(((4-methyl-N-((1-methylpiperidin-4-yl)methyl)phenyl)sulfonamido)ethynyl)-2-(1H-pyrrol-1-yl)benzoate], the inhibition at 50 µM is more than 50%. Regarding `O=C(Nc1ccc(OC2CN(c3cccc(C(=O)O)c3-n3cccc3)C2)cc1)c1cccs1` [Example 123, 2-(1H-pyrrol-1-yl)-3-(3-(4-(thiophene-2-formamido)phenoxy)azetidin-1-yl)benzoic acid], the inhibition at 50 µM under setting [1] was less than 10%. As to `COC(=O)c1cccc(N2CC(Oc3ccc(COC(=S)Nc4ccc(Cl)cc4)cc3)C2)c1-n1cccc1` [Example 236, Methyl 3-(3-(4-((((4-chlorophenyl)thiocarbamoyl)oxy)methyl)phenoxy)azetidin-1-yl)-2-(1H-pyrrol-1-yl)benzoate], the inhibition at 50 µM under setting [1] fell in the range of 10 to 30%. `Cc1ccc(CN(C#Cc2cccc(C(=O)O)c2-n2cccc2)S(=O)(=O)c2ccc(C)cc2)cc1` [Example 343]: the inhibition at 50 µM is less than 10%. Consider `O=C(O)c1cccc(N2CC(Oc3ccc(COc4ccc(Cl)cc4)cc3)C2)c1-n1cccc1` [Example 241, 3-(3-(4-((4-chlorophenoxy)methyl)phenoxy)azetidin-1-yl)-2-(1H-pyrrol-1-yl)benzoic acid], for which the inhibition at 50 µM under setting [1] is less than 10%. On the same count and under the same terms, in the case of `COC(=O)c1cccc(N2CC(SC3CCCCC3)C2)c1-n1cccc1` [Example 350, Methyl 3-(3-(cyclohexylthio)azetidin-1-yl)-2-(1H-pyrrol-1-yl)benzoate] it was less than 10%; in that of `COC(=O)c1cccc(N2CC(Oc3ccc(CO)cc3C)C2)c1-n1cccc1` [Example 299, Methyl 3-(3-(4-(hydroxymethyl)-2-methylphenoxy)azetidin-1-yl)-2-(1H-pyrrol-1-yl)benzoate], more than 50%. Turning to `O=C(Nc1ccc(OC2CN(c3cccc(C(=O)O)c3-n3cccc3)C2)cc1)Nc1cccc(Cl)c1` [Example 134, 3-(3-(4-(3-(3-chlorophenyl)ureido)phenoxy)azetidin-1-yl)-2-(1H-pyrrol-1-yl)benzoic acid], the inhibition at 50 µM under setting [1] lay in the range of 10 to 30%. Same read-out and setting: in the case of `O=C(NCc1ccco1)c1cccc(N2CC(Oc3ccc(CO)cc3)C2)c1-n1cccc1` [Example 388, N-(furan-2-yl-methyl)-3-(3-(4-(hydroxymethyl)phenoxy)azetidin 1-yl)-2-(1H-pyrrol-1-yl)benzamide] it was less than 10%; in that of `O=C(NC1CN(c2cccc(C(=O)O)c2-n2cccc2)C1)c1ccccc1` [Example 179, 3-(3-benzamidoazetidin-1-yl)-2-(1H-pyrrol-1-yl)benzoic acid], less than 10%. On the same count and under the same terms, as for `COC(=O)c1cccc(N2CC3(CN(c4ccccc4)C3)C2)c1-n1cccc1` [Example 274, Methyl 3-(6-phenyl-2,6-diazaspiro[3.3]heptan-2-yl)-2-(1H-pyrrol-1-yl)benzoate], the figure is less than 10%. For `O=C(O)c1cccc(N2CC(Oc3ccc(NS(=O)(=O)C4CC4)cc3)C2)c1-n1cccc1` [Example 127, 3-(3-(4-(cyclopropylsulfonamido)phenoxy)azetidin-1-yl)-2-(1H-pyrrol-1-yl)benzoic acid], the inhibition at 50 µM under setting [1] was less than 10%.

On to `COC(=O)c1cccc(N2CC3(CN(c4ccc(N)cc4)C3)C2)c1N` [Compound 13, Methyl 2-amino-3-(6-(4-aminophenyl)-2,6-diazaspiro[3.3]heptan-2-yl)benzoate], for which the inhibition at 50 µM under setting [1] was more than 50%. On to `O=C(O)c1cccc(N2CC(Oc3ccc(CO)cc3)C2)c1-c1ccoc1` [Compound 49], for which the inhibition at 50 µM under setting [1] is less than 10%. On the same count and under the same terms, in the case of `COC(=O)c1cccc(N2CC(Oc3ccc(NC(=O)Nc4cccc(Cl)c4)cc3)C2)c1-n1cccc1` [Example 133, Methyl 3-(3-(4-(3-(3-chlorophenyl)ureido)phenoxy)azetidin-1-yl)-2-(1H-pyrrol-1-yl)benzoate] it was more than 50%; in that of `O=C(O)c1cccc(N2CC(Oc3ccc(COc4cccc(C(F)(F)F)c4)cc3)C2)c1-n1cccc1` [Example 250, 3-(3-(4-((3-(trifluoromethyl)phenoxy)methyl)phenoxy)azetidin-1-yl)-2-(1H-pyrrol-1-yl)benzoic acid], 10 to 30%.
